Laboratory results: patent US9789100B2, “Compounds as rearranged during transfection (RET) inhibitors” (GlaxoSmithKline Intellectual Property Development Limited, priority 2013, dated 2017)
Where a name gives a salt, the structure may show the parent alone. Read-outs that look alike come from different tables or passages of the source.

Legend:
[1] = biological target: Human RET kinase cytoplasmic domain (Homo sapiens (Human), UniProt P07949); test: RET kinase enzymatic assay; format: biochemical; conditions: human RET kinase enzymatic assay (Table 2)
Procedure: RET Kinase Enzymatic Assay
GST-RET was purified using glutathione sepharose chromatography. The RET kinase enzymatic assay was performed in a total volume of 10 uL with increasing concentrations of RET kinase inhibitor as a singlet in a 384 well format as follows: RET inhibitor compound plates are prepared by adding 100 nL of RET inhibitor at different concentrations to a 384-well plate. 5 μL/well of a 2× enzyme mix (50 mM HEPES (4-(2-hydroxyethyl)-1-piperazineethanesulfonic acid); 1 mM CHAPS (3[(3-cholamidopropyl)dimethylammonio]-1-propanesulfonate); 0.1 mg/mL BSA (bovine serum albumin); 1 mM DTT (dithiothreitol); 0.2 nM RET kinase) was added to the 384-well plate and incubated for 30 minutes at 23° C.

TT cells = test: RET kinase cell-based proliferation assay; parameters: species or system human; conditions: 192 h, read-out: RET IC50
Source text: RET Kinase Cell-Based Proliferation Assay

[2] = biological target: constitutive RET kinase phosphorylation in TT cells (Homo sapiens (Human), UniProt P07949, C634W); test: RET kinase cell-based mechanistic assay
Procedure: RET Kinase Cell-Based Mechanistic Assay
The potency of the compound of the invention was tested for its ability to inhibit constitutive RET kinase phosphorylation in cell-based assay. […] 1.0E5 TT cells/well were plated in a 96-well cell culture plate and allowed to adhere overnight. […] IC50s were fitted using GraphPad Prism to a sigmoidal dose response.

[3] = human RET kinase cell-based proliferation assay, TT cells, eight days (Table 4)

constitutive RET kinase phosphorylation in TT cells, sequence (P07949 29-1114 C634W): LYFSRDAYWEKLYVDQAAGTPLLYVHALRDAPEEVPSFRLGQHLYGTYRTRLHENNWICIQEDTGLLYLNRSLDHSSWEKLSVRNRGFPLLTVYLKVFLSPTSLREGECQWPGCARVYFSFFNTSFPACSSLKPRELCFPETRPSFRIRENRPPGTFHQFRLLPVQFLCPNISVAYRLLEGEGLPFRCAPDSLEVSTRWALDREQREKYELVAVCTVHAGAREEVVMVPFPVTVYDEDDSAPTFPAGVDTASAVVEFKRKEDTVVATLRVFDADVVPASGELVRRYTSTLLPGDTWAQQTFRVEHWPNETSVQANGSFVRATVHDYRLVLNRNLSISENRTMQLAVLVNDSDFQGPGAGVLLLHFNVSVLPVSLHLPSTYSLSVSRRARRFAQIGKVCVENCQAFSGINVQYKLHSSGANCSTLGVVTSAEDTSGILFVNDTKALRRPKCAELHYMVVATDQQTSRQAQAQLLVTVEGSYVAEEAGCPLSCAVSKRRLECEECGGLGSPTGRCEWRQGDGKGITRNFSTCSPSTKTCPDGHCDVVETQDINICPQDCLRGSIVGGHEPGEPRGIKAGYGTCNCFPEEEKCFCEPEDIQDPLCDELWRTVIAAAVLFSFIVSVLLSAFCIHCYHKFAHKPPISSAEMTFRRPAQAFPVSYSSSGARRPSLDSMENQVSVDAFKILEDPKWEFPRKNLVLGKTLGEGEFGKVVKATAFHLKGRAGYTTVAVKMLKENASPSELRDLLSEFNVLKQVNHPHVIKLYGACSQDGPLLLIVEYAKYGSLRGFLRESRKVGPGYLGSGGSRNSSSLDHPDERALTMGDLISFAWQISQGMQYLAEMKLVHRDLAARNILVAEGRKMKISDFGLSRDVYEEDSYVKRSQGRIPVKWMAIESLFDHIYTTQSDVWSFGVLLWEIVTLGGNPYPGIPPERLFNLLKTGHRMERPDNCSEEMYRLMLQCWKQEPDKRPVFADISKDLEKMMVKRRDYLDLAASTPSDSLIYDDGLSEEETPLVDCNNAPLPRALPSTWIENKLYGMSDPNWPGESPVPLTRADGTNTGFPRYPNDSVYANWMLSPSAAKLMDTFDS
Human RET kinase cytoplasmic domain, sequence (P07949 658-1114): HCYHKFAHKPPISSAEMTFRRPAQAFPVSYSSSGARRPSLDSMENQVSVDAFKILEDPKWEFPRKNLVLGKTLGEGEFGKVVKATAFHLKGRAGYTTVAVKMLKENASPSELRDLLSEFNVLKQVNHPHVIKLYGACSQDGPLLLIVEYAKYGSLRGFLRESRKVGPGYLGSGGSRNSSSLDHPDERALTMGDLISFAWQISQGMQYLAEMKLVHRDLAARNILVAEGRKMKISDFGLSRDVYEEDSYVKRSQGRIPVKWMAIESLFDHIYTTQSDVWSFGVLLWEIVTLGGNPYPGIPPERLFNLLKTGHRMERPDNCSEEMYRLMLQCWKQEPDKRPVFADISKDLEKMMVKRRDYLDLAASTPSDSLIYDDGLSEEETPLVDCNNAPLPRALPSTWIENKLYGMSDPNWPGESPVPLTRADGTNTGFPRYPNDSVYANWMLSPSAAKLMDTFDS

CCOc1cc(-c2ccc(CC(=O)Nc3cc(C(C)(C)C(F)(F)F)nn3C)c(F)c2)c[nH]c1=O [Example 41, 2-(4-(5-ethoxy-6-oxo-1,6-dihydropyridin-3-yl)-2-fluorophenyl)-N-(1-methyl-3-(1,1,1-trifluoro-2-methylpropan-2-yl)-1H-pyrazol-5-yl)acetamide hydrochloride]
IC50 [1]: < 100 nM | IC50 (TT cells; Homo sapiens, TT): 100 to 500 nM | IC50 [2]: < 100 nM

CCOc1cc(-c2ccc(CC(=O)Nc3cc(C(C)(C)C(F)(F)F)n[nH]3)c(F)c2)c[nH]c1=O [Example 42, 2-(4-(5-ethoxy-6-oxo-1,6-dihydropyridin-3-yl)-2-fluorophenyl)-N-(3-(1,1,1-trifluoro-2-methylpropan-2-yl)-1H-pyrazol-5-yl)acetamide hydrochloride]
IC50 [1]: < 100 nM | IC50 (TT cells; Homo sapiens, TT): < 100 nM | IC50 [2]: < 100 nM

CCOc1cc(-c2ccc(CC(=O)Nc3ccc(CC(F)(F)CO)c(C(F)(F)F)c3)c(F)c2)c[nH]c1=O [Example 43, N-(4-(2,2-difluoro-3-hydroxypropyl)-3-(trifluoromethyl)phenyl)-2-(4-(5-ethoxy-6-oxo-1,6-dihydropyridin-3-yl)-2-fluorophenyl)acetamide]
IC50 [1]: < 100 nM | IC50 (TT cells; [3]): < 100 nM | IC50 [2]: < 100 nM

CCOc1cc(-c2ccc(CC(=O)Nc3cc(-c4cnn(C)c4)cc(C(F)(F)F)c3)c(F)c2)c[nH]c1=O [Example 45, 2-(4-(5-ethoxy-6-oxo-1,6-dihydropyridin-3-yl)-2-fluorophenyl)-N-(3-(1-methyl-1H-pyrazol-4-yl)-5-(trifluoromethyl)phenyl)acetamide hydrochloride]
IC50 [1]: < 100 nM | IC50 (TT cells; Homo sapiens, TT): 100 to 500 nM | IC50 [2]: < 100 nM

CCOc1cc(-c2ccc(CC(=O)Nc3cc(OCCN(C)C)cc(C(F)(F)F)c3)c(F)c2)c[nH]c1=O [Example 46, N-(3-(2-(dimethylamino)ethoxy)-5-(trifluoromethyl)phenyl)-2-(4-(5-ethoxy-6-oxo-1,6-dihydropyridin-3-yl)-2-fluorophenyl)acetamide]
IC50 [1]: < 100 nM | IC50 (TT cells; [3]): < 100 nM | IC50 [2]: < 100 nM
